Counter-ions that a name gives are not always drawn. Some results are limits rather than exact numbers.

The melting point is the temperature of the solid-liquid transition. Compound `CCCCOC(=O)NCCc1nc(-c2ccc(-c3ccc(Cl)cc3)cc2)c[nH]1` [Example 395, butyl 2-[4-(4′-chloro-1,1′-biphenyl-4-yl)-1H-imidazol-2-yl]ethylcarbamate] gave a melting point of 164.2 °C. In the case of `CCCCOC(=O)NCCc1nc(-c2ccc(CC(C)C)cc2)c[nH]1` [Example 445, butyl 2-[4-(4-isobutylphenyl)-1H-imidazol-2-yl]ethylcarbamate], the melting point worked out at 95.5 °C. Regarding `Fc1ccc(-c2c[nH]c([C@@H](NC3CCCCC3)C3CCCCC3)n2)cc1F` [Example 287, N-{(S)-cyclohexyl[4-(3,4-difluorophenyl)-1H-imidazol-2-yl]methyl}cyclohexanamine], the melting point was found to be 182.3 °C. Turning to `CC[C@H](N)c1nc(-c2ccc(-c3ccccc3)cc2)c[nH]1` (as salt: hydrochloride) [Example 196, (1S)-1-(4-[1,1′-biphenyl]-4-yl-1H-imidazol-2-yl)-1-propanamine], the melting point was > 250 °C.

In the case of `CCCCOC(=O)NCc1nc(-c2ccc(-c3ccccc3)cc2)c[nH]1` [Example 78, butyl (4-[1,1′-biphenyl]-4-yl-1H-imidazol-2-yl)methylcarbamate], the melting point is 130 to 132 °C. As for `CCCCOC(=O)NCCc1nc(-c2ccc(-c3cccc(OC)c3)cc2)c[nH]1` [Example 461, butyl 2-[4-(3′-methoxy-1,1′-biphenyl-4-yl)-1H-imidazol-2-yl]ethylcarbamate], the figure is 112 to 113 °C; as for `CS(=O)(=O)c1ccc(-c2c[nH]c([C@@H](NC3CCCCC3)C3CCCCC3)n2)cc1` [Example 138, N-{(S)-cyclohexyl[4-(4-methylsulphonylphenyl)-1H-imidazol-2-yl]methyl}cyclohexanamine], 152 to 154 °C. Under `NCc1nc(-c2ccccc2)c(-c2ccccc2)[nH]1` (as salt: hydrochloride) [Example 160, (4,5-diphenyl-1H-imidazol-2-yl)methanamine] stands 210 to 212 °C; under `O=C(NCCc1nc(-c2ccc(-c3ccc(Br)cc3)cc2)c[nH]1)OCC1CCCCC1` [Example 303, cyclohexylmethyl 2-[4-(4′-bromo-1.1′-biphenyl-4-yl)-1H-imidazol-2-yl]ethylcarbamate], 130 to 132 °C. In the case of `CCCCCCC(N)c1nc(-c2ccc(-c3ccccc3)cc2)c[nH]1` (racemic) (as salt: hydrochloride) [Example 188, (R,S)-1-(4-[1,1′-biphenyl]-4-yl-1H-imidazol-2-yl)-heptanamine], the melting point fell in the range of 182 to 184 °C.

Take `CCC[C@@H](NCc1ccccc1)c1nc(-c2ccc(-c3ccccc3)cc2)c[nH]1` [Example 213, (1R)-N-benzyl-1-(4-[1,1′-biphenyl]-4-yl-1H-imidazol-2-yl)-1-butanamine]: the melting point is 78.6 °C.

With `O=C(NCCc1nc(-c2ccc(-c3ccccc3)cc2)c[nH]1)OCCCC(F)(F)F` [Example 345, 4,4,4-trifluorobutyl 2-[4-(1,1′-biphenyl-4-yl)-1H-imidazol-2-yl]ethylcarbamate], the melting point is 157.3 °C.

In the case of `CCCCCC(N)c1nc(-c2ccccc2)c[nH]1` (racemic) (as salt: hydrochloride) [Example 65, (R,S)-1-(4-phenyl-1H-imidazol-2-yl)hexylamine], the melting point lay within 146 to 148 °C. With `CC(C)(C)c1ccc(-c2c[nH]c(CCNC(=O)OC3CCCCC3)n2)cc1` [Example 342, cyclohexyl 2-[4-(4-tert-butylphenyl)-1H-imidazol-2-yl]ethylcarbamate], the melting point lay in the range of 127 to 130 °C. `CCN(CC)c1ccc(-c2c[nH]c([C@@H](NCC3CCCCC3)C3CCCCC3)n2)cc1` (as salt: hydrochloride) [Example 290, 4-(2-{(S)-cyclohexyl[(cyclohexylmethyl)amino]methyl}-1H-imidazol-4-yl)-N,N-diethylaniline] yielded a melting point of 204 to 206 °C. As for `c1ccc(CN[C@H](CC2CCCCC2)c2nc(-c3ccccc3)c[nH]2)cc1` [Example 134, (1R)-N-benzyl-2-cyclohexyl-1-(4-phenyl-1H-imidazol-2-yl)ethanamine], the figure is 52 to 54 °C; as for `CC(C)CCCC(N)c1nc(-c2cccc(Br)c2)c[nH]1` (racemic) (as salt: hydrochloride) [Example 233, (R,S)-1-[4-(3-bromophenyl)-1H-imidazol-2-yl]-5-methyl-1-hexanamine], 200 to 202 °C. Consider `CC(C)(C)OC(=O)N[C@H](Cc1c[nH]c2ccccc12)c1nc(C(C)(C)C)c[nH]1` [Example 50, tert-butyl (1R)-1-(4-tert-butyl-1H-imidazol-2-yl)-2-(1H-indol-3-yl)-ethylcarbamate], for which the melting point lay in the range of 104 to 106 °C. As for `N[C@H](CC1CCCCC1)c1nc(-c2ccccc2)c[nH]1` (as salt: hydrochloride) [Example 132, (1R)-2-cyclohexyl-1-(4-phenyl-1H-imidazol-2-yl)ethanamine], the figure is 196 to 198 °C.

As for `CCCCCCC(NCc1ccccc1)c1nc(-c2ccccc2OC)c[nH]1` (racemic) [Example 201, (R,S)-N-benzyl-1-[4-(2-methoxyphenyl)-1H-imidazol-2-yl]-1-heptanamine], the melting point was 155 to 157 °C.

`CC(C)(C)c1cc(-c2c[nH]c(CCNC(=O)OCC3CCCCC3)n2)cc(C(C)(C)C)c1O` (as salt: hydrochloride) [Example 329, cyclohexylmethyl 2-[4-(3,5-ditert-butyl-4-hydroxyphenyl)-1H-imidazol-2-yl]ethylcarbamate] yielded a melting point of 111.5 °C. Under `Fc1ccc(-c2c[nH]c(C(CCCC(F)(F)F)NC3CCCCC3)n2)cc1` (racemic) [Example 136, (R,S)-N-{5,5,5-trifluoro-1-[4-(4-fluorophenyl)-1H-imidazol-2-yl]pentyl}cyclohexanamine] stands 220 °C; under `CCCCOC(=O)NCCc1nc(-c2ccc(N3CCCC3)cc2)c[nH]1` [Example 313, butyl 2-[4-(4-pyrrolidin-1-ylphenyl)-1H-imidazol-2-yl]ethylcarbamate], 125 °C. Under `Fc1ccc(-c2c[nH]c([C@@H](NCC3CCCCC3)C3CCCCC3)n2)cc1` [Example 293, (S)-1-cyclohexyl-N-(cyclohexylmethyl)-1-[4-(4-fluorophenyl)-1H-imidazol-2-yl]methanamine] stands 184.8 °C. For the compound `CCCCOC(=O)NCCc1nc(-c2ccc(F)cc2)c[nH]1` [Example 251, butyl 2-[4-(4-fluorophenyl)-1H-imidazol-2-yl]ethylcarbamate], the melting point is 87 °C. Under `CCCCOC(=O)NCCc1nc(-c2ccc(-c3ccc(C#N)cc3)cc2)c[nH]1` [Example 451, butyl 2-[4-(4′-cyano-1,1′-biphenyl-4-yl)-1H-imidazol-2-yl]ethylcarbamate] stands 147 °C. Under `CC(C)(C)OC(=O)N(Cc1ccccc1)Cc1nc(-c2ccc(-c3ccccc3)cc2)c[nH]1` [Example 165, 4-(2-{[benzyl(tert-butoxycarbonyl)amino]methyl}-1H-imidazol-4-yl)-1,1′-biphenyl] stands 130 to 132 °C; under `c1ccc(-c2ccc(-c3c[nH]c(CCNC4CCCCC4)n3)cc2)cc1` [Example 249, N-[2-(4-[1,1′-biphenyl]4-yl-1H-imidazol-2-yl)ethyl]-cyclohexanamine], 207 to 210 °C.

Compound `CCCCOC(=O)NCCc1nc(-c2ccc(-c3cccc(Cl)c3)cc2)c[nH]1` [Example 443, butyl 2-[4-(3′-chloro-1,1′-biphenyl-4-yl)-1H-imidazol-2-yl]ethylcarbamate] displayed a melting point of 142.6 °C. As for `CC(C)(NC(=O)OCc1ccccc1)c1nc(-c2ccc(-c3ccccc3)cc2)c[nH]1` [Example 247, 4-[2-(1-{[(benzyloxy)carbonyl]amino}-1-methylethyl)-1H-imidazol-4-yl]-1,1′-biphenyl], the melting point fell in the range of 148 to 152 °C.

`CCCCC(N)c1nc(-c2ccccc2)c[nH]1` (racemic) (as salt: hydrochloride) [Example 181, (R,S)-1-(4-phenyl-1H-imidazol-2-yl)pentylamine] came in with a melting point of 178 to 180 °C. As for `CCCCOC(=O)NCCc1nc(-c2ccc(-c3ccccc3)cc2)c[nH]1` [Example 31, butyl 2-(4-[1,1′-biphenyl]-4-yl-1H-imidazol-2-yl)ethylcarbamate], the figure is 136.7 °C; as for `COc1ccc(-c2c[nH]c([C@@H](N)C3CCCCC3)n2)cc1F` (as salt: hydrochloride) [Example 259, (S)-cyclohexyl[4-(3-fluoro-4-methoxyphenyl)-1H-imidazol-2-yl]-methanamine], 225 to 227 °C; as for `CC(C)CCCC(NC1CCCCC1)c1nc(-c2cccc(Br)c2)c[nH]1` (stereo not drawn) [Example 37, N-{1-[4-(3-bromophenyl)-1H-imidazol-2-yl]-5-methylhexyl}-N-cyclohexylamine], 236 to 238 °C.

`CC(C)(C)c1cc(-c2c[nH]c(CCNC(=O)OCc3ccccc3)n2)cc(C(C)(C)C)c1O` [Example 389, benzyl 2-[4-(3,5-ditert-butyl-4-hydroxyphenyl)-1H-imidazol-2-yl]ethylcarbamate] showed a melting point of 177.5 °C. Under `CCCCOC(=O)NCCc1nc(-c2ccc(-c3ccccc3)cc2)c(CC)[nH]1` [Example 453, butyl 2-[4-(1,1′-biphenyl-4-yl)-5-ethyl-1H-imidazol-2-yl]ethylcarbamate] stands 127 to 128 °C. As for `c1ccc(CC[C@@H](NCc2ccccc2)c2nc(-c3ccccc3)c[nH]2)cc1` [Example 135, (1R)-N-benzyl-3-phenyl-1-(4-phenyl-1H-imidazol-2-yl)-1-propanamine], the figure is 142 to 144 °C; as for `NCCc1nc(-c2ccc(-c3ccccc3)cc2)c[nH]1` (as salt: hydrochloride) [Example 161, 2-(4-[1,1′-biphenyl]4-yl-1H-imidazol-2-yl)ethanamine], 228 to 230 °C; as for `Brc1cccc(-c2c[nH]c(CNC3CCCCC3)n2)c1` [Example 254, N-{[4-(3-bromophenyl)-1H-imidazol-2-yl]methyl}cyclohexanamine], 202 to 204 °C.

For the origin of these results see patent publication US7291641B2, “Derivatives of heterocycles with 5 members, their preparation and their use as medicaments” (Societe de Conseils de Recherches et d'Applications …, priority 1999, dated 2007).
